Assay results: PubChem BioAssay AID1902 (Broad Institute, 2009)
The source made the active and inactive calls.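 The calls were made as follows: active = EC50 no more than a set limit of log units above the highest dose; inactive = the rest.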

target: S. pyogenes SKKanGAS, kanamycin survival, BacTiterGlo, 6 h; test: SKKanGAS survival reduction under kanamycin, dose response, streptokinase promoter inhibitor project, SKKanGAS strain, luminescence, dose confirmation (AID 1902);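 also: lower survival reflects blocked streptokinase promoter driving kanamycin resistance gene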

Compound | EC50
COc1ccc(OCCCC(=O)Nc2nc(-c3ccccn3)cs2)cc1 | 309 nM
CC(C)(C)c1cc[n+](C2=C([O-])c3ccccc3C(=O)/C2=N\S(=O)(=O)c2ccccc2)cc1 | 3200 nM
COc1ccc(C(=O)NNC(=S)NC(=O)c2ccco2)cc1 | 2290 nM
COc1ccccc1NC(=O)NCCCCc1ccccc1 | > 15000 nM (inactive)
Oc1ccccc1N=Nc1nc(-c2ccccc2)c(-c2ccccc2)[nH]1 | 303 nM
O=C1C(NS(=O)(=O)c2cccs2)=C(N2CCN(c3cccc(C(F)(F)F)c3)CC2)C(=O)c2ccccc21 | 8850 nM
CCCCCCc1cc2cc(-c3nnc(-c4ccccc4)o3)c(=O)oc2cc1O | 3050 nM
CC(C)=CCc1c2c(c3occ(-c4ccc(O)cc4)c(=O)c3c1O)C=CC(C)(C)O2 | 876 nM
O=[N+]([O-])c1cc(Cl)c(O)c2ncccc12 | 782 nM
CC(C)S(=O)(=O)c1csc(NC(=O)Nc2cc(Cl)ccc2Cl)c1Cl | 1650 nM
CC(C)Nc1nc(NC(C)C)nc(N(C)N)n1 | 3070 nM
CC(=O)OCC1=C(C(=O)O)N2C(=O)C(NC(=O)C(C)Cn3nc(C)c(Cl)c3C)C2SC1 (configuration not stated) | 2950 nM
Cc1cccc(C(=O)NCC(=O)N2CCOCC2)c1 | > 15000 nM (inactive)
CC(=O)c1c(O)cc(O)c(C(C)=O)c1O | 2640 nM
COc1ccc(Cl)cc1/C=C/c1ccc2cccc(O)c2n1 | 388 nM
COc1ccc(N2CCN(C(=S)NC(=O)c3cccs3)CC2)c([N+](=O)[O-])c1 | 6200 nM
O=C(COc1ccc(Cl)cc1Cl)Nc1ccc(-c2ccc(N3CCOCC3)nn2)cc1 | > 15000 nM (inactive)
CCOc1ccccc1NC(=O)c1nc(S(=O)(=O)Cc2ccccc2)ncc1Cl | 8850 nM
COc1cccc(C(=O)Nc2nnc(-c3ccc(F)cc3)o2)c1 | 1280 nM
Cc1oc(-c2ccc(F)cc2)nc1CN(Cc1ccccn1)CC1CCCO1 (configuration not stated) | 2000 nM
COc1ccc(NS(=O)(=O)c2ccc3ccccc3c2)c2ncccc12 | 1200 nM
COC(=O)c1c(NC(=O)c2ccn(C)n2)sc2c1CCC2 | > 15000 nM (inactive)
O=C(NNC1=Nc2cccc3cccc1c23)c1ccc(Br)cc1 | 220 nM
Cc1ccc(NC(=S)c2nc3ccccc3[nH]2)c(C)c1 | 1740 nM
Nc1sc(-c2ccccc2)cc1C(=O)N/N=C/c1ccc(Cl)cc1 | 5730 nM
O=C(Nc1nnc(C2=COCCO2)o1)c1ccc(Br)cc1 | 780 nM

Compound | EC50
O=C(c1cnn2c(C(F)(F)F)cc(-c3ccc(F)cc3)nc12)N1CCc2ccccc2C1 | 12100 nM
COc1cc(/C=C/c2ccc3cccc(O)c3n2)cc(OC)c1OC | 3660 nM
Cc1ccc(O)c(NC(=S)NC(=O)c2ccc(-c3ccc(Cl)cc3)o2)c1 | 221 nM
COc1ccc(S(=O)(=O)N/N=C(/C)c2ccncc2)cc1 | > 15000 nM (inactive)
CCOc1ccc(NC(=S)NNC(=S)Nc2cccc(C(F)(F)F)c2)cc1 | > 15000 nM (inactive)
CSc1ccc(/C=C2\CCn3c2nc2cc(C(=O)O)ccc2c3=O)cc1 | 6150 nM
COc1cc(NS(=O)(=O)c2ccc3ccccc3c2)c2ncccc2c1 | 1080 nM
NNc1nc(-c2ccccc2)c2cc(Br)ccc2n1 | 9120 nM
O=C(N[C@H](CO)[C@H](O)c1ccc([N+](=O)[O-])cc1)C(Cl)Cl | 973 nM
O=S(=O)(Nc1nccs1)c1ccc(Nc2nnc(-c3ccccc3)c3ccccc23)cc1 | 2510 nM
O=C(O)c1ccc(N/N=C/c2ccc(OC(=O)c3cccc(Cl)c3)cc2)cc1 | 1400 nM
CCC(=O)Nc1ccc(Nc2nc(C)c([N+](=O)[O-])c(Nc3ccc(NC(=O)CC)cc3)n2)cc1 | 1560 nM
Oc1ccccc1/C=N/Nc1nc2ccccc2o1 | 2420 nM
COc1ccccc1NS(=O)(=O)c1cc(NC(=S)NCC2CCCO2)ccc1C (configuration not stated) | > 15000 nM (inactive)
O=C(COc1ccc(Cl)cc1)Nc1nnc(-c2ccc3c(c2)CCCC3)o1 | 369 nM
COC(=O)c1ccc(N2CCN(C)CC2)c(NC(=O)COc2ccc(C)cc2)c1 | > 15000 nM (inactive)
CC(=O)N(C)c1ccc(OCC(O)Cn2c3ccc(Cl)cc3c3cc(Cl)ccc32)cc1 (configuration not stated) | 3350 nM
COc1ccc(-c2oc3ccc(N4CCOCC4)cc3c2C#CC2(O)CCCCC2)cc1 | 2110 nM
Cc1csc(Nc2ccc(Cl)cc2)[n+]1-c1ccc(Cl)cc1 | 11100 nM
CSc1nc(SCC(=O)O)c2sc3nc(-c4ccccc4)c4c(c3c2n1)CCC4 | 1140 nM
Cc1cccc(/C=N/NC(=O)c2ccc3c(c2)OCCO3)c1O | 4390 nM
COc1ccc(NC(=S)Nc2nc(CC(=O)Nc3ccccc3OC)cs2)cc1 | 8890 nM
O=C(NC(=S)N1CCN(c2ccc(F)cc2)CC1)C12CC3CC(CC(C3)C1)C2 | 11100 nM
Oc1ccc2ccccc2c1/C=N/Nc1nnc(-c2ncc[nH]2)c2ccccc12 | 1550 nM
O=C(NCc1nc(-c2ccc(C(F)(F)F)cc2)no1)Nc1cc(Cl)cc(Cl)c1 | 2310 nM
COc1ccc(-c2nc(/C=C3\C(C)=Nc4ccccc43)c(O)o2)cc1 | 3500 nM

Compound | EC50
Cc1c(-c2cccc(Cl)c2)nc2ccccc2c1C(=O)OC/C(O)=C(\C#N)c1nc2ccccc2[nH]1 | 1900 nM
O=[N+]([O-])c1ccc(/C=[N+](\[O-])CCO)o1 | 5780 nM
N#C/C(=C(/O)CN1CCN(c2ccccc2F)CC1)c1nc(-c2ccccc2)cs1 | 12200 nM
Cc1ccc(C(=O)NNC(=S)NC(=O)c2ccc(Cl)cc2Cl)cc1 | 90 nM
CCOc1ccc(-n2c(C)cc(/C=C3/C(=N)N4C(=NC3=O)SN=C4S(C)(=O)=O)c2C)cc1 | 938 nM
COc1ccc(-c2c/c(=N\c3nc(-c4ccccc4)c(C)s3)c3ccccc3o2)cc1O | 11000 nM
COc1ccc(CNC(=O)c2c(C)oc3c2C(=O)c2ccccc2C3=O)cc1 | 810 nM
Cc1nc(C)c(C(=O)N/N=C/c2cc(Br)ccc2O)s1 | 2000 nM
Cc1cc(/C=N/n2cnnc2)c(C)n1-c1ccc(OCc2ccc(Cl)cc2Cl)cc1 | 2100 nM
O=C(Nc1cccc(-c2csc(Nc3cccc(C(F)(F)F)c3)n2)c1)c1ccccc1 | 4330 nM
CCOC(=O)C1CCN(C2=C(NS(=O)(=O)c3ccc(Cl)cc3)C(=O)c3ccccc3C2=O)CC1 | 7150 nM
CC/C(=N\NC(=S)Nc1cc(C)ccc1C)c1ccc(OC(F)F)cc1 | 3130 nM
O=C(NNC1=C(C(=O)C(F)(F)F)CCC1)c1ccccc1O | 724 nM
Cc1c(CCOC(=O)C2C3CC4CC(C3)CC2C4)sc[n+]1CC(=O)c1ccc(Br)cc1 (configuration not stated) | 7280 nM
COc1ccc(-n2c(=S)[nH]c3cc(C(=O)Nc4ccc(C)c(F)c4)ccc3c2=O)c(OC)c1 | 2840 nM
Cc1ccc2sc(NNC(=O)c3cc(-c4cccs4)nc4ccccc34)nc2c1C | 859 nM
O=C1c2cccc3c([N+](=O)[O-])ccc(c23)C(=O)N1O | 1160 nM
O=C(Cc1ccccc1)Nn1c(O)c(/C=C2\C=Nc3ccccc32)sc1=S | 14600 nM
CCOC(=O)c1c(S(=O)(=O)N2CCCCCC2)c(C)n(C)c1C | > 15000 nM (inactive)
Cc1ccccc1NC(=O)NCCCCc1ccccc1 | > 15000 nM (inactive)
O=C(O)CCn1cc(/C=C/C(=O)c2ccc(Cl)cc2)c(-c2cccc(Br)c2)n1 | 3680 nM
COc1cc(/C=C/C(=O)OC2CC3CCC2(C)C3(C)C)ccc1O (configuration not stated) | 7080 nM
CCN(CC)c1ccc(-c2nn3c(-c4ccccc4OC)nnc3s2)cc1 | 6200 nM
c1ccc(-c2nc(N3CCCCCC3)nc(-n3ccnc3)n2)cc1 | 2410 nM
O=[N+]([O-])c1ccc(S(=O)(=O)Nc2ccc(-c3csc(-c4ccccc4)n3)cc2)cc1 | 2790 nM
